Measured values as given in patent US20180224430A1, “Method of Estimating the Incidence of In Vivo Reactions to Chemical or Biological Agents Using In Vitro Experiments” (Coyne Scientific, LLC, priority 2015, published 2018).

Tests used:
[1] = tested on: cardiomyocytes derived from stem cells (differentiated induced pluripotent stem cells); test: In vitro assay with Endpoint A (causally associated with cardiomyopathy) on stem-cell-derived cardiomyocytes from 100 donors; assay type: cell-based, human
Experimental: An in vitro assay is then identified whose endpoint—referred to herein as Endpoint A—includes one that is causally associated with one of the cardiotoxic effects of doxorubicin: cardiomyopathy. Concentrations of doxorubicin as prescribed by the in vitro assay's protocol are prepared in a concentration that corresponds to doses of 500 mg and 600 mg administered in vivo.
In vitro tests are conducted at these concentrations on a representative sample of cardiomyocytes derived from stem cells (the cardiomyocytes are differentiated induced pluripotent stem cells) originating from a sample of 100 donors, and then the donors are arrayed in order of ascending scores on Endpoint A.
The “Reaction Threshold Prediction Model” is selected as the mathematical transform in their procedure. It is noted from the doxorubicin clinical cardiotoxicity data mentioned above that 12% of the clinical trial participants experienced cardiomyopathy when treated at the 500 mg dose level. Using the in vitro test results above, the Endpoint A score is determined that is associated with the 88th Percentile member of the in vitro cohort of 100 donors (88 representing 100% minus the 12% of the sample in vivo who experienced cardiomyopathy following treatment with a 500 mg dose). The Endpoint A score reads 70 units.
Next, the in vitro assay of doxorubicin is repeated, with a concentration corresponding to a 600 mg dose administered in vivo, on a representative sample of cardiomyocytes derived from stem cells originating from a sample of 100 donors, and then the donors are arrayed in order of ascending scores on Endpoint A. This time, the Endpoint A score is detected for the donor at the 76th Percentile (76 representing 100% minus the […] of the sample in vivo who experienced cardiomyopathy following treatment with a 600 mg dose). This time, the Endpoint A score reads 65 units. […]

[2] = cited from earlier work

## COc1cccc2c1C(=O)c1c(O)c3c(c(O)c1C2=O)C[C@@](O)(C(=O)CO)C[C@@H]3O[C@H]1C[C@H](N)[C@H](O)[C@H](C)O1 [doxorubicin]
[1]; concentration corresponding to 500 mg dose, 88th percentile member of 100 donors
  Endpoint A score: 70 units
[1]; concentration corresponding to 600 mg dose, donor at 76th percentile of 100 donors
  Endpoint A score: 65 units
[1]; leads to incidences of cardiomyopathy in the range of 10 to 25 percent
  Endpoint A score approximating threshold of impact (presumed toxicity threshold): 65-70
[2]; 500 mg dose level
  clinical trial participants who experienced cardiomyopathy: 12%
[2]; 600 mg dose
  sample in vivo who experienced cardiomyopathy: 23%
